“Also recorded” adds a separate entry of the source. One block for each compound: values may come before it. Where no end group is shown, it is not given here. rhodamine = not defined here; Rhod = not defined here
Key:
[1] = test system: HeLa cells transfected with GR-GFP; test: GR-GFP translocation assay (cytosolic access of Dex-labeled molecules); type: cell-based; conditions: for translocation ratio (TR): HeLa cells expressing GR-GFP
Procedure: HeLa cells transfected with pK7-GR-GFP were plated in Matrical plates as described above. To label nuclei, the media was replaced with HKR buffer containing 300 nM Hoescht and the cells incubated for 30 min at 37° C.
Cells were then analyzed as described above.
HeLa cells transfected with pK7-GR-GFP for 24-36 hr were plated (10^4/well in 200 μL) the day prior to experiments in 96 well glass bottom plates (Matrical). The media was replaced with HKR buffer containing 300 nM Hoescht and the cells incubated for 30 min at 37° C. […] The cells were incubated for a further 30 min at 37° C. before epifluorescence imaging using a Zeiss Axiovert 200M microscope fitted with a mRM digital camera, a 63×1.3NA PlanApo objective and an EXFO-Excite illumination source.
Uptake was allowed to proceed for an additional 30 min at 37° C. before analysis by epifluorescence images as described elsewhere herein.
The image analysis algorithm used by CellProfiler is customizable and contained within a ‘Pipeline’ that describes a series of image manipulation and evaluation steps, such as reading the image, adjusting the intensity, and identifying objects. Each step has several options. […] Using the image of Hoescht fluorescence and Otsu's method of automatic thresholding, nuclei were identified and segmented using 3 class thresholding. The middle class was assigned to background. Closely approximated objects were separated using ‘Laplacian of Gaussian’ modeling, and touching nuclei were divided using the ‘shape’ option. Nuclear regions were expanded by 2 μm to generate an enlarged region. The nuclear region was subtracted from enlarged region to generate a ring surrounding the nucleus (surround). […] The ratio of the median intensities of the nuclear and surrounding region of the GFP or mCherry (as appropriate) image were collected for every cell examined. Those cells falling below a threshold of intensity (10% of the maximum intensity of the image) were discarded as ‘untransfected’. Typically, 20-60 transfected cells from 15-30 images were examined for each experimental condition.

[2] = test system: HeLa cells transfected with pGR-mCherry and Rab5-GFP or Rab5Q79L-GFP; test: GR-mCherry translocation in cells expressing Rab5-GFP or Rab5Q79L-GFP; type: cell-based; conditions: 1 μM, 30 min
Procedure: Cotransfected cells expressing Rab-GFP fusions and pGR-mCherry were identified via their characteristic pattern of green and red fluorescence. The translocation ratio was determined using median values of mCherry fluorescence within the nucleus and surrounding region using CellProfiler.
HeLa cells transfected for 24-36 hr with pGR-mCherry and either Rab5-GFP or Rab5Q79L-GFP were plated (10^4/well in […]) the day prior to experiments in 96 well glass bottom plates (Matrical). The cells were washed with HKR buffer and the nuclei labeled using Hoescht as above. […] The cells were incubated for a further 30 min at 37° C. before imaging. Cells that had been cotransfected with EGFP fusions were identified via their characteristic pattern of green and red fluorescence. To evaluate the extent of GR activation, epifluorescence images were obtained as described above, except the fluorescence of pGR-mCherry was also visualized using Zeiss Filter Set #43 (ex BP 545/25 nm, FT 570, em BP 605/70 nm).
The image analysis algorithm used by CellProfiler is customizable and contained within a ‘Pipeline’ that describes a series of image manipulation and evaluation steps, such as reading the image, adjusting the intensity, and identifying objects. Each step has several options. […] Using the image of Hoescht fluorescence and Otsu's method of automatic thresholding, nuclei were identified and segmented using 3 class thresholding. The middle class was assigned to background. Closely approximated objects were separated using ‘Laplacian of Gaussian’ modeling, and touching nuclei were divided using the ‘shape’ option. Nuclear regions were expanded by 2 μm to generate an enlarged region. The nuclear region was subtracted from enlarged region to generate a ring surrounding the nucleus (surround). The diameter of the surrounding region was chosen to be 2 μm larger than the nucleus, within the range (1-3 μm) used by previously reported high content screens (Ding et al., 1998, J Biol Chem. 273:28897-28905; Peeraniet al., 2007, EMBO J. 26:4744-4755). The ratio of the median intensities of the nuclear and surrounding region of the GFP or mCherry (as appropriate) image were collected for every cell examined. Those cells falling below a threshold of intensity (10% of the maximum intensity of the image) were discarded as ‘untransfected’. Typically, 20-60 transfected cells from 15-30 images were examined for each experimental condition.

[3] = Figure 15
Source text: Table printed on a drawing sheet, Figure 15
The amino acid sequence of Arg8 is provided in SEQ ID NO:68.
First reader's note: Cytosolic concentration and percent in cytosol are taken as measures of cell permeability or uptake; the supplied text has no description of Figure 15.

[4] = test system: U2OS(GIGI) cells; test: GIGI in lysates, stably transfected U2OS(GIGI) cells; type: cell-based; conditions: Dex-labeled peptides, 24 h, lysates, read-out: EC50 (eGFP expression, GIGI)
Source text: RFUs are expressed±standard deviation (Excel). The maximum induction level is defined as RFUmax. Data were processed using Kaleidagraph and GraphPad Prism software. RFU=([I530]/[I580])−([I′530]/[I′580]) (1)
Y=Ymin+(Ymax−Ymin)/(1+10^logEC50-X) (2)

[5] = test system: HeLa cells; test: Colocalization with Alexa-488-transferrin (Tf488), live cell confocal microscopy; type: cell-based; conditions: 1 μM, 30 min
Procedure: To examine the colocalization of rhodamine labeled miniature proteins or peptides with Alexa-488-transferrin (Tf488), HeLa cells were plated (200 μl, 10^4 cells/well, 96 well glass bottom plates, Matrical) the day prior to experiments. The media was replaced with 150 μL Hepes-Krebs-Ringer's (HKR) buffer (140 mM NaCl, 2 mM KCl, 1 mM CaCl2, 1 mM MgCl2, 10 mM Hepes pH 7.4) containing 1 μM miniature protein or 25 nM Alexa-488-transferrin (Molecular Probes) and the cells incubated at 37° C. for 30 min. The cells were then rinsed twice with 200 μL, HKR buffer and nuclei were labeled by overlaying 200 μL HKR containing 300 nM Hoechst 33342 (Molecular Probes Cat. # H3570) for 5 minutes. Images of cells were acquired using a PerkinElmer LiveView spinning disk confocal microscope fitted with a 60×1.2 NA objective. Colocalization with Rab-GFP fusions was examined in an analogous way using HeLa cells transfected with the appropriate expression plasmid.
Colocalization between rhodamine and fluorescein labeled miniature proteins and peptides, or between rhodamine labeled miniature proteins and markers of endocytosis was completed using confocal microscopy. Live cell confocal microscopy was conducted using a PerkinElmer LiveView spinning disk confocal microscope fitted with heated microscope enclosure (maintained at 37° C.), a 60×1.2 NA objective, laser illumination, a Nipkow CSU-1× spinning disk, and a Hammamatsu CS9100 EMCCD camera operated using Velocity software. Alexafluor-488-transferrin was detected using a 488 nm laser and a 520 nm long pass filter; tetraethylrhodamine and Alexafluor-546-transferrin were detected using a 546 nm laser line and a 580 nm long pass filter, Hoescht 33342 was detected using a 405 nm laser line and a 450 nm long pass filter. Images were processed for presentation by using the ‘subtract background’ option and linear contrast adjustments in Image J. All adjustments were applied uniformly to the entire image. Colocalization analysis was performed using the JACOP plugin (Bolte and Cordelières, 2006), available on the ImageJ website. The fraction of rhodamine signal overlapping with EGFP signal (R E G) was calculated using Mander's coefficient and automatic thresholding. Pearson's correlation coefficient (R) was also obtained using the JACOP plugin.

[6] = biological target: cathepsin B (Homo sapiens, UniProt P07858); test: Resistance to acid proteases: cathepsin B; type: in vitro ADME; conditions: 50 pmol, 30 min, 37° C., pH 5
Procedure: 50 pmol aPPR, 5.2R, 5.3R, ZF5.3R, TatR (SEQ ID NO:67), or Arg8R (SEQ ID NO:68) were incubated with 5 pg cathepsin B, D, or L for 30 min at 37° C. in 10 μL of 20 mM sodium phosphate buffer (pH 5) containing 150 mM NaCl. At the end of the incubation, the reaction was stopped by adding 40 μL of a solution containing a 84:15:1 ratio of water:EtOH:TFA before analysis by HPLC.

[7] = test system: HeLa cells; test: HPLC analysis of cytosolic extracts prepared with streptolysin O; type: cell-based; conditions: HeLa cells treated with rhodamine labeled molecule
Procedure: To generate cytosolic extracts, HeLa cells were treated with streptolysin O (SLO), a well characterized bacterial toxin that creates pores in the plasma membranes of target cells (Walev et al., 2002, FASEB 16:237-239). […] Moreover, when the toxin is added to cultured cells at 4° C. and washed with PBS before raising the temperature to 37° C., pores are created only in the plasma membrane and the release of ER, golgi, or endolysosomal contents are avoided (Androlewicz et al., 1993, Proc Natl Acad Sci USA 90:9130-9134).
First, selective release of the cytoplasmic contents of HeLa cells using the published procedures was verified. HeLa cells were treated with 20 μg/mL SLO in PBS containing 5 mM DTT (20 min, 4° C.), washed (three PBS washes, 150 μL each), resuspended in PBS, and incubated at 37° C. for 15 min, after which 1.5 μM propidium iodide (PI), a marker of permeabilized cell membranes, was added.

[8] = test system: HeLa cells; test: Effects of endocytosis inhibitors on cell uptake, confocal microscopy; type: cell-based; conditions: 1 μM rhodamine labeled, 30 min, 37° C.
Procedure: HeLa cells grown for 24 h in glass bottom plates were incubated with HKR buffer, or HKR buffer containing 80 μM dynasore, 50 μM N-ethyl-isopropyl-amiloride, or 5 mM methyl-β-cyclodextrin for 30 min at 37° C. prior to the addition of 1 μM rhodamine-labeled miniature protein or peptide (Tat (SEQ ID NO:67) and Arg8 (SEQ ID NO:68)). The cells were washed twice with DMEM, the nuclei labeled with Hoescht, and images acquired as described above for colocalization experiments.

Compound: C[C@@H]1C[C@H]2[C@@H]3CCC4=CC(=O)C=C[C@]4(C)[C@@]3(F)[C@@H](O)C[C@]2(C)[C@@]1(O)C(=O)CO [Dex, dexamethasone]
reduction of the increase in TR by MβCD ([1]; 5 mM MβCD, 1 μM): 53%
TR (GR-mCherry), Rab5Q79L-GFP expressing cells ([2]; Rab5Q79L-GFP): 2.45±0.21
TR (GR-mCherry), Rab5-GFP expressing cells ([2]; wild-type Rab5-GFP): 2.24±0.15

Compound: GRKKRRQRRRPPQY [Tat]
% in cytosol [3]: 0.93%
[molecule] in cytosol [3]: 4.63 nM

EC50 [4]: 438 nM
Compound: K^DexGPSQPTYPGDDAPVEDLIRFYNDLQQYLNVVTRHRY-NH2 (K(dexamethasone)GPSQPTYPGDDAPVEDLIRFYNDLQQYLNVVTRHRY-NH2) [aPPDex]
effect of bafilomycin on TR ([1]; 200 nM bafilomycin pretreatment 1 h, then 1 μM): did not alter the effect
translocation ratio (TR) ([1]; 1 μM, 30 min): 1.41±0.09
effect of EIPA on TR ([1]; 50 μM EIPA pretreatment 30 min, then 1 μM, 30 min): None of the endocytosis inhibitors altered the TR
effect of dynasore on TR ([1]; 80 μM dynasore pretreatment 30 min, then 1 μM, 30 min): None of the endocytosis inhibitors altered the TR
effect of methyl-β-cyclodextrin (MβCD) on TR ([1]; 5 mM MβCD pretreatment 30 min, then 1 μM, 30 min): None of the endocytosis inhibitors altered the TR
TR (GR-mCherry), cells expressing Rab5Q79L-GFP or Rab5-GFP [2]: 1.25±0.04

EC50 [4]: 103 nM
Compound: K^DexWYSCNVCGKAFVLSAHLNQHLAVHTQAT-NH2 (K(dexamethasone)WYSCNVCGKAFVLSAHLNQHLAVHTQAT-NH2; cysteine pairing not given here) [ZFDex]
translocation ratio (TR) ([1]; 1 μM, 30 min): 1.4±0.05

Compound: K^RhodGPSQPTYPGDDAPVEDLIRFYRDLRRYLNVVTRHRY-NH2 (K(rhodamine)GPSQPTYPGDDAPVEDLIRFYRDLRRYLNVVTRHRY-NH2; reading uncertain; also: printed as K^RhodGPSQPTYPGDDAPVEDLIRFYRDLRRYLNVVTRHRY-NH2) [4.3R]
intracellular red fluorescent signal [5]: red fluorescent puncta throughout the cytosol

Compound: K^RhodGPSQPTYPGDDAPVRDLIRFYRDLQRYLNVVTRHRY-NH2 (K(rhodamine)GPSQPTYPGDDAPVRDLIRFYRDLQRYLNVVTRHRY-NH2; reading uncertain; also: printed as K^RhodGPSQPTYPGDDAPVRDLIRFYRDLQRYLNVVTRHRY-NH2) [4.2R]
intracellular red fluorescent signal [5]: red fluorescent puncta throughout the cytosol

Compound: K^RhodGPSQPTYPGDDAPVRDLIRFYRDLQRYLRVVTRHRY-NH2 (K(Rhod)GPSQPTYPGDDAPVRDLIRFYRDLQRYLRVVTRHRY-NH2; reading uncertain; also: printed as KRhodGPSQPTYPGDDAPVRDLIRFYRDLQRYLRVVTRHRY-NH2) [5.2R]
degradation by cathepsin B (HPLC) [6]: several additional small peaks
intracellular red fluorescent signal [5]: red fluorescent puncta throughout the cytosol

Compound: K^RhodRRRRRRRR-NH2 (K(Rhod)RRRRRRRR-NH2; reading uncertain; also: printed as K^RhodRRRRRRRR-NH2) [Arg8R]
degradation by cathepsin B (HPLC) [6]: little or no degradation
material found in SLO cytoplasmic extracts (HPLC) [7]: retention times distinct from the starting material; also recorded: little or no material with the same retention time as the starting material
intracellular red fluorescent signal [5]: red fluorescent puncta throughout the cytosol
effect of EIPA on uptake ([8]; 50 μM EIPA): dramatically reduced the uptake
effect of dynasore on uptake ([8]; 80 μM dynasore): completely blocked the uptake
effect of MβCD on uptake ([8]; 5 mM MβCD): increased

Compound: RRRRRRRR [Arg8]
% in cytosol [3]: 2.8%
[molecule] in cytosol [3]: 14.0 nM

Compound: WYSCNVCGKAFVLSRHLNRHLRVHRRAT [ZF5.3]
% in cytosol [3]: 59%
[molecule] in cytosol [3]: 249 nM
